According to PMC5608556, “Photo-affinity labelling and biochemical analyses identify the target of trypanocidal simplified natural product analogues” (PLoS Neglected Tropical Diseases, 2017):

Molecular target: T1, FoF1-ATP synthase F1 β-subunit (GFP-PTP tagged) (Trypanosoma brucei brucei, UniProt Q9GPE9)
T1 construct: The endogenous expression produces tagged protein at physiological levels, allowing it to be trafficked and form complexes in the same way as untagged endogenously expressed protein; expressed in transfected cells; host or cells: procyclic-form T. brucei strain 29-13, stably transfected with BsmI-linearised pC-F1β-GFP-PTP (recombination into the endogenous gene)
Assay: In vivo photo-affinity labelling of GFP-PTP-tagged F1 β-subunit, Cy5.5 detection
Format: binding
Settings: 50 μM, in vivo pulse-chase, UV 365 nm
Method: Fig 7 B-THP-Ts bind to C-terminal GFP-PTP tagged F1 α- and β- subunits. (A) Stably transfected PF T. brucei cells endogenously-expressing F1 α-GFP-PTP or F1 β-GFP-PTP were loaded with MitoTracker Red CMXros (red) and DAPI (blue) and imaged microscopically to determine localisation of GFP-PTP-tagged protein. […] (B) Following in vivo photo-affinity labelling with 50 μM compound 3 or compound 1 (negative control), GFP-PTP-tagged F1 α- and β-subunits were affinity purified and Cy5.5 clicked on. Proteins were separated by SDS-PAGE and a western blot was performed with mouse anti-GFP / anti-mouse-DyLight 800. […]
Pulse-chase in vivo photo-affinity labelling with bi-functional compound 3 (and lead compound 1 as negative control) was performed on cells from both cell lines expressing GFP-PTP-tagged F1 α- or β-subunits. Tagged subunits were immobilised on IgG-sepharose beads, purified, and Cy5.5 fluorescent reporter clicked on, and proteins were detected by western blotting (Fig 7B). […] In trypanosomatids (but not in other organisms) the native α-subunit is expressed as a 63 KDa protein which is then cleaved by an unknown protease to 20 KDa N-terminal and 43 KDa C-terminal domains, both of which remain associated with the FoF1-ATP synthase complex. […]

T1 sequence (Q9GPE9 22-519): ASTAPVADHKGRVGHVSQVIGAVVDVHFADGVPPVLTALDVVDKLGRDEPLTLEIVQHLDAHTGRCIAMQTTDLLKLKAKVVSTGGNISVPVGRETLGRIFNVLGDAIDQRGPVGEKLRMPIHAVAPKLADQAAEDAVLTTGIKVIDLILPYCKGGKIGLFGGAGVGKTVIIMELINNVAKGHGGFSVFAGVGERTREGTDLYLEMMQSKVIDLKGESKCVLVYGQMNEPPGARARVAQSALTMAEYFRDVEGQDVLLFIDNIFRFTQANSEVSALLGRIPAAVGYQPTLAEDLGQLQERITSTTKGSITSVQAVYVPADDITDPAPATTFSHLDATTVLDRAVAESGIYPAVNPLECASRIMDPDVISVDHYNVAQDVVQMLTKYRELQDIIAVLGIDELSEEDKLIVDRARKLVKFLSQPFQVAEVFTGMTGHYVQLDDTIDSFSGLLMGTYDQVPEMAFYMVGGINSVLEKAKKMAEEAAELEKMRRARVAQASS

C#CCNC(=O)CCC[C@H]1CC2(C[C@@H](Cn3cc([C@@H]4CCC[C@H](CCCCOCc5ccccc5)O4)nn3)O1)N=N2 [Compound 3]
UV-conjugation (Cy5.5 labelling at 700 nm) to F1 β-GFP-PTP: can UV-conjugate
